Where two headings read alike, the source gives them in different places. Where a SMILES comes first, the peptide text is derived from it. Side-chain parts run from the residue outwards. [ ]: non-standard residue; d: D form. The star is where a group is joined. αMePhe(2-F) = C[C@](N)(Cc1ccccc1F)C(=O)O; C14 diacid = O=C(O)CCCCCCCCCCCCC(=O)*; αMeY = C[C@](N)(Cc1ccc(O)cc1)C(=O)O; αMeL = CC(C)C[C@](C)(N)C(=O)O; Orn = NCCC[C@H](N)C(=O)O; AEEA = NCCOCCOCC(=O)O; Aib = CC(C)(N)C(=O)O
What was measured:
Type in all cases: cell-based
hGLP-1R = hGLP-1R (Homo sapiens, UniProt P43220); assay: Functional cAMP formation (HTRF) in HEK-293 clonal cells expressing hGLP-1R, 0.1% bovine casein, without or with 1.0% human serum albumin; set-up: expressed in transfected cells; details: for EC50: cAMP, 0.1% bovine casein (no human serum albumin), geometric mean
Summary of the method: (§1)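 Cells were stimulated with peptide for 30 min at 37° C, then lysed in buffer carrying cAMP-d2 and anti-cAMP Eu3+-cryptate for a competitive HTRF read after at least 60 min at room temperature. The 665/620 nm ratio was converted to nM cAMP against a standard curve.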

hGCGR = biological target: T1, hGCGR (Homo sapiens, UniProt P47871); assay: Functional cAMP formation (HTRF) in HEK-293 clonal cells expressing hGCGR, 0.1% bovine casein, without or with 1.0% human serum albumin
T1 construct: expressed in transfected cells
Summary of the method: as §1

hGIPR = biological target: T2, hGIPR (Homo sapiens, UniProt P48546); assay: Functional cAMP formation (HTRF) in HEK-293 clonal cells expressing hGIPR, 0.1% bovine casein, without or with 1.0% human serum albumin; details: for EC50: cAMP, 0.1% bovine casein (no human serum albumin), geometric mean
T2 construct: expressed in transfected cells
T2 sequence (P48546 22-466): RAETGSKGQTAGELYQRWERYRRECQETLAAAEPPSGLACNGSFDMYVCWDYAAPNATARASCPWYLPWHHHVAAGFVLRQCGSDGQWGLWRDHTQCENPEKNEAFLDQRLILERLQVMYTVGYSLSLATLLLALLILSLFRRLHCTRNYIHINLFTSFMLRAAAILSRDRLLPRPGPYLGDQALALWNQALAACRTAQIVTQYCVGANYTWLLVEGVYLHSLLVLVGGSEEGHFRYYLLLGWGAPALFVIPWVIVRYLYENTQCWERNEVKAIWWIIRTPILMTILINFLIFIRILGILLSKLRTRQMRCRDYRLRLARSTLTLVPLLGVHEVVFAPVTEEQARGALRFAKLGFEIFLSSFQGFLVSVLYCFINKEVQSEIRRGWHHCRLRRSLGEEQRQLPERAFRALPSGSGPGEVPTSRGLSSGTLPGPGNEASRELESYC
Summary of the method: as §1

[1] = hGLP-1R EC50, nM (SEM, n), 37° C.
[2] = hGCGR EC50, nM (SEM, n), cAMP, 37° C., 0.1% bovine casein (no human serum albumin), geometric mean
[3] = hGIPR EC50, nM (SEM, n), 37° C.

T1 sequence (P47871 26-477): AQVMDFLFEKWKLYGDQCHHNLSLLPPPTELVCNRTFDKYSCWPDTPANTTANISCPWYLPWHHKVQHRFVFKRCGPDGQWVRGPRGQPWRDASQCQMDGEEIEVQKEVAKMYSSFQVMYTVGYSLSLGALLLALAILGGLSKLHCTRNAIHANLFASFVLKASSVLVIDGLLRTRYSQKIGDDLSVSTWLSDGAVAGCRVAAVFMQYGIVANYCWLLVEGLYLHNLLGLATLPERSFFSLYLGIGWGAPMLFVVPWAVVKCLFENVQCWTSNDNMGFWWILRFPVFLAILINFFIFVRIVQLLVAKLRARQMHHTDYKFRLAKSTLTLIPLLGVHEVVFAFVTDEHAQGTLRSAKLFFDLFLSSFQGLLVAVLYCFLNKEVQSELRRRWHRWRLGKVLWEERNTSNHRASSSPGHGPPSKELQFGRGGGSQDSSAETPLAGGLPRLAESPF
Chain of hGLP-1R (P43220 24-463): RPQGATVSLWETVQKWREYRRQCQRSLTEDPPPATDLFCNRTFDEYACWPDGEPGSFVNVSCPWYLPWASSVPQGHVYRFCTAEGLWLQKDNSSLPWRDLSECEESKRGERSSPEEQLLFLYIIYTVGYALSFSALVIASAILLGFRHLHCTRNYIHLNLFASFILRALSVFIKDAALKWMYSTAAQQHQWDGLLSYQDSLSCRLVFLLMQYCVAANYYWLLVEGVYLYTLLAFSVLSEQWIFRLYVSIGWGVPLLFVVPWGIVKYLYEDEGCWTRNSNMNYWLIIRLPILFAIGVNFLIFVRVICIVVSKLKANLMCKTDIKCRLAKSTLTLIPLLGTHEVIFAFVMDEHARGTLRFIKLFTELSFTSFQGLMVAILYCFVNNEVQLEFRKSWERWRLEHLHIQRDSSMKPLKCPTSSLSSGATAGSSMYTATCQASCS

CC[C@H](C)[C@H](NC(=O)[C@H](CCCN)NC(=O)[C@H](CC(=O)O)NC(=O)[C@H](CC(C)C)NC(=O)[C@](C)(CC(C)C)NC(=O)[C@@H](NC(=O)C(C)(C)NC(=O)[C@@H](NC(=O)[C@H](CC(=O)O)NC(=O)[C@H](CO)NC(=O)[C@@H](NC(=O)[C@](C)(Cc1ccccc1F)NC(=O)[C@@H](NC(=O)CNC(=O)[C@H](CCC(=O)O)NC(=O)C(C)(C)NC(=O)[C@@H](N)Cc1ccc(O)cc1)[C@@H](C)O)[C@@H](C)O)C(C)C)[C@@H](C)CC)C(=O)N[C@@H](C)C(=O)N[C@@H](CCC(N)=O)C(=O)NC(C)(C)C(=O)N[C@@H](CCC(=O)O)C(=O)N[C@@H](Cc1ccccc1)C(=O)N[C@H](C(=O)N[C@@H](CCCCNC(=O)COCCOCCNC(=O)COCCOCCNC(=O)CC[C@H](NC(=O)CCCCCCCCCCOc1ccc(C(=O)O)cc1)C(=O)O)C(=O)N[C@@](C)(Cc1ccc(O)cc1)C(=O)N[C@@H](CC(C)C)C(=O)N[C@H](C(=O)N[C@@H](CCCCNC(=O)COCCOCCNC(=O)COCCOCCNC(=O)CC[C@H](NC(=O)CCCCCCCCCCOc1ccc(C(=O)O)cc1)C(=O)O)C(=O)NCC(=O)NCC(=O)N1CCC[C@H]1C(=O)N[C@@H](CO)C(=O)N[C@@H](CO)C(=O)NCC(=O)N[C@@H](C)C(=O)N1CCC[C@H]1C(=O)N1CCC[C@H]1C(=O)N1CCC[C@H]1C(=O)N[C@@H](CO)C(N)=O)[C@@H](C)CC)[C@@H](C)CC [Example 313]
Emax (hGLP-1R; HEK293, read-out: hGLP-1R Emax, % ± SEM, 0.1% bovine casein and 1.0% human serum albumin, 37° C., percent of maximal response to GLP-1(7-36)NH2): 95% | EC50 (hGLP-1R; [1]): 1.13 nM | EC50 (hGCGR; hGCGR EC50, nM (SEM, n), 0.1% bovine casein and 1.0% human serum albumin, 37° C., geometric mean): > 9950 nM | EC50 (hGCGR; [2]): > 9950 nM | EC50 (hGIPR; [3]): 0.00781 nM

CC[C@H](C)[C@H](NC(=O)[C@H](CC(C)C)NC(=O)[C@](C)(Cc1ccc(O)cc1)NC(=O)[C@@H](CCC(=O)O)NC(=O)[C@@H](NC(=O)[C@H](Cc1ccccc1)NC(=O)[C@H](CCC(=O)O)NC(=O)[C@H](Cc1ccncc1)NC(=O)[C@H](CCC(N)=O)NC(=O)[C@H](C)NC(=O)[C@H](CCCCNC(=O)COCCOCCNC(=O)COCCOCCNC(=O)CC[C@H](NC(=O)CCCCCCCCCCCCC(=O)O)C(=O)O)NC(=O)[C@H](CCCN)NC(=O)[C@H](CC(=O)O)NC(=O)[C@H](CC(C)C)NC(=O)[C@](C)(CC(C)C)NC(=O)[C@@H](NC(=O)[C@H](CO)NC(=O)[C@H](Cc1ccncc1)NC(=O)[C@H](CC(=O)O)NC(=O)[C@H](CO)NC(=O)[C@@H](NC(=O)[C@](C)(Cc1ccccc1F)NC(=O)[C@@H](NC(=O)CNC(=O)[C@H](CCC(=O)O)NC(=O)C(C)(C)NC(=O)[C@@H](N)Cc1ccc(O)cc1)[C@@H](C)O)[C@@H](C)O)[C@@H](C)CC)[C@@H](C)CC)C(=O)N[C@@H](CCC(=O)O)C(=O)NCC(=O)NCC(=O)N[C@@H](CCCCNC(=O)COCCOCCNC(=O)COCCOCCNC(=O)CC[C@H](NC(=O)CCCCCCCCCCCCC(=O)O)C(=O)O)C(=O)N[C@@H](CO)C(=O)N[C@@H](CO)C(=O)NCC(=O)N[C@@H](C)C(=O)N1CCC[C@H]1C(=O)N1CCC[C@H]1C(=O)N1CCC[C@H]1C(=O)N[C@@H](CO)C(N)=O [Example 156]
Emax (hGLP-1R; HEK293, percent of maximal response to GLP-1(7-36)NH2, 37° C., 0.1% bovine casein, arithmetic mean, read-out: hGLP-1R Emax, % ± SEM): 110% | EC50 (hGCGR; cAMP, incubated at 37° C., 0.1% bovine casein (no human serum albumin), geometric mean, read-out: hGCGR EC50, nM (SEM, n)): > 9950 nM | Emax (hGIPR; HEK293, percent of maximal response to GIP(1-42)NH2, 37° C., 0.1% bovine casein, arithmetic mean, read-out: hGIPR Emax, % ± SEM): 89.9%

CC[C@H](C)[C@H](NC(=O)[C@H](CC(C)C)NC(=O)[C@](C)(Cc1ccc(O)cc1)NC(=O)[C@@H](CCC(=O)O)NC(=O)[C@@H](NC(=O)[C@H](Cc1ccccc1)NC(=O)[C@H](CCC(=O)O)NC(=O)C(C)(C)NC(=O)[C@H](CCC(N)=O)NC(=O)[C@H](C)NC(=O)[C@H](CCCCNC(=O)COCCOCCNC(=O)COCCOCCNC(=O)CCCCCCCCCCCCC(=O)O)NC(=O)[C@H](CCCN)NC(=O)[C@H](CC(=O)O)NC(=O)[C@H](CC(C)C)NC(=O)[C@](C)(CC(C)C)NC(=O)[C@@H](NC(=O)[C@H](CO)NC(=O)[C@H](Cc1ccc(OC)cc1)NC(=O)[C@H](CC(=O)O)NC(=O)[C@H](CO)NC(=O)[C@@H](NC(=O)[C@](C)(Cc1ccccc1F)NC(=O)[C@@H](NC(=O)CNC(=O)[C@H](CCC(=O)O)NC(=O)C(C)(C)NC(=O)[C@@H](N)Cc1ccc(O)cc1)[C@@H](C)O)[C@@H](C)O)[C@@H](C)CC)[C@@H](C)CC)C(=O)N[C@@H](CCC(=O)O)C(=O)NCC(=O)NCC(=O)N1CCC[C@H]1C(=O)N[C@@H](CO)C(=O)N[C@@H](CO)C(=O)NCC(=O)N[C@@H](C)C(=O)N1CCC[C@H]1C(=O)N1CCC[C@H]1C(=O)N1CCC[C@H]1C(=O)N[C@@H](CO)C(=O)N[C@@H](CCCCNC(=O)COCCOCCNC(=O)COCCOCCNC(=O)CCCCCCCCCCCCC(=O)O)C(N)=O [Example 267] (H-Y[Aib]EGT[αMePhe(2-F)]TSDY(Me)SI[αMeL]LD[Orn]K([AEEA-AEEA-C14 diacid])AQ[Aib]EFI[dE][αMeY]LIEGGPSSGAPPPSK([AEEA-AEEA-C14 diacid])-NH2)
EC50 (hGLP-1R; 37° C., read-out: hGLP-1R EC50, nM (SEM, n)): 0.271 nM | EC50 (hGCGR; 0.1% bovine casein and 1.0% human serum albumin, 37° C., geometric mean, read-out: hGCGR EC50, nM (SEM, n)): > 9950 nM | EC50 (hGCGR; cAMP, 37° C., 0.1% bovine casein (no human serum albumin), geometric mean, read-out: hGCGR EC50, nM (SEM, n)): > 9950 nM | Emax (hGIPR; HEK293, 0.1% bovine casein and 1.0% human serum albumin, 37° C., percent of maximal response to GIP(1-42)NH2, read-out: hGIPR Emax, % ± SEM): 88.1% | EC50 (hGIPR; 37° C., read-out: hGIPR EC50, nM (SEM, n)): 0.0162 nM

CC[C@H](C)[C@H](NC(=O)[C@H](CC(C)C)NC(=O)[C@](C)(Cc1ccc(O)cc1)NC(=O)[C@@H](CCC(=O)O)NC(=O)[C@@H](NC(=O)[C@H](Cc1ccccc1)NC(=O)[C@H](CCCCNC(=O)COCCOCCNC(=O)CC[C@H](NC(=O)CCCCCCCCCOc1ccc(C(=O)O)cc1)C(=O)O)NC(=O)C(C)(C)NC(=O)[C@H](CCC(N)=O)NC(=O)[C@H](C)NC(=O)[C@H](CCCCNC(=O)COCCOCCNC(=O)CC[C@H](NC(=O)CCCCCCCCCOc1ccc(C(=O)O)cc1)C(=O)O)NC(=O)[C@H](CCCN)NC(=O)[C@H](CC(=O)O)NC(=O)[C@H](CC(C)C)NC(=O)[C@](C)(CC(C)C)NC(=O)[C@@H](NC(=O)C(C)(C)NC(=O)[C@H](Cc1ccc(O)cc1)NC(=O)[C@H](CC(=O)O)NC(=O)[C@H](CO)NC(=O)[C@@H](NC(=O)[C@](C)(Cc1ccccc1F)NC(=O)[C@@H](NC(=O)CNC(=O)[C@H](CCC(=O)O)NC(=O)C(C)(C)NC(=O)[C@@H](N)Cc1ccc(O)cc1)[C@@H](C)O)[C@@H](C)O)[C@@H](C)CC)[C@@H](C)CC)C(=O)N[C@@H](CCC(=O)O)C(=O)NCC(=O)NCC(=O)N1CCC[C@H]1C(=O)N[C@@H](CO)C(=O)N[C@@H](CO)C(=O)NCC(=O)N[C@@H](C)C(=O)N1CCC[C@H]1C(=O)N1CCC[C@H]1C(=O)N1CCC[C@H]1C(=O)N[C@@H](CO)C(N)=O [Example 372]
EC50 (hGLP-1R; [1]): 0.291 nM | EC50 (hGCGR; [2]): > 9950 nM | EC50 (hGCGR; hGCGR EC50, nM (SEM, n), cAMP, 37° C., 0.1% bovine casein and 1.0% human serum albumin, geometric mean (SEM, n)): > 9950 nM | Emax (hGIPR; HEK293, read-out: hGIPR Emax, % ± SEM, cAMP, 37° C., 0.1% bovine casein and 1.0% human serum albumin, percent of maximal response to GIP(1-42)NH2): 90.6% | Emax (hGIPR; HEK293, read-out: hGIPR Emax, % ± SEM, cAMP, 37° C., 0.1% bovine casein, percent of maximal response to GIP(1-42)NH2, arithmetic mean): 97.3% | EC50 (hGIPR; [3]): 0.0112 nM

Reference: US20230265151A1, “GIP/GLP1 CO-AGONIST COMPOUNDS” (priority 2020, published 2023)
